According to EP4667464A1 (Cyrus Therapeutics Inc., priority 2023, dated 2024):
pIC50: −log10 of the molar value. Where two headings read alike, the source gives them in different places.

Assays:
SOS1 = target: T1, SOS1 (Homo sapiens, UniProt Q07889); test: SOS-catalyzed nucleotide exchange assay (HTRF, SOS1-mediated GTP loading of KRAS G12D); assay type: biochemical
T1 construct: HIS-SOS1cat (160 nM; Cytoskeleton, US); His (N); purchased Cytoskeleton
T1 sequence (Q07889 564-1049 limits assumed): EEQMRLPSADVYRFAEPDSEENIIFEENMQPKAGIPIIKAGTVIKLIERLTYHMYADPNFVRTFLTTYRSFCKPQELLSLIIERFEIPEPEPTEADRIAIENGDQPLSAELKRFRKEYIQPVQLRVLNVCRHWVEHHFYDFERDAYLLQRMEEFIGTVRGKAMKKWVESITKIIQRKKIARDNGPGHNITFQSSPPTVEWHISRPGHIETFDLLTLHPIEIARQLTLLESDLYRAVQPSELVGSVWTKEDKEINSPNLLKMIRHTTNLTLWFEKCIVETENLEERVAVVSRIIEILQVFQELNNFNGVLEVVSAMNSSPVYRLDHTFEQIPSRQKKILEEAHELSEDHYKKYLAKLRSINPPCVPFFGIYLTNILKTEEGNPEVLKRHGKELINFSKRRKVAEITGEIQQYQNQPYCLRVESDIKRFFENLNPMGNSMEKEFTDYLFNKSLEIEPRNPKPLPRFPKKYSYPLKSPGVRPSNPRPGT
Description: SOS1 activity was measured by SOS1-mediated GTP loading quantification of KRAS^G12D. GTP loaded KRAS^G12D was detected by HTRF (Homogeneous Time Resolved Fluorescence) using anti-GST terbium (Cisbio, France) as a donor and a fluorescence GTP analogue (EDA-GTP-DY-647P1, [DY-647P1 labeled 2'/3'-O-(2-aminoethyl-carbamoyl)guanosine-5'-triphosphate (Jena bioscience, Germany)]) as an acceptor.
KRAS^G12D working solution was prepared by adding equal amounts of GST-KRAS^G12D (100 nM) and anti-GST-terbium (2 nM; Cisbio, France) to the assay buffer and culturing on ice for 10 minutes. […] Control solution was prepared by adding equal volumes of EDA-GTP-DY-647P1 and the assay buffer for normalization control to exclude GEF-independent GTP loading and background signals.
10 uL of the KRAS^G12D solution was added to each well and incubated for 30 minutes at room temperature while shaking. HTRF was measured using a Thermo Varioskan (excitation 334 nm, emission 665 nm). The IC50 of each inhibitor was analyzed using Graphad Prism.

KRAS G12C::SOS1 = target: T2, KRAS G12C::SOS1 (Homo sapiens, UniProt Q07889); test: KRAS G12C::SOS1 protein-protein interaction (PPI) inhibition assay (HTRF); assay type: binding
T2 construct: purchased CISBIO 64KRASG12PEH
T2 sequence (Q07889 1-1333): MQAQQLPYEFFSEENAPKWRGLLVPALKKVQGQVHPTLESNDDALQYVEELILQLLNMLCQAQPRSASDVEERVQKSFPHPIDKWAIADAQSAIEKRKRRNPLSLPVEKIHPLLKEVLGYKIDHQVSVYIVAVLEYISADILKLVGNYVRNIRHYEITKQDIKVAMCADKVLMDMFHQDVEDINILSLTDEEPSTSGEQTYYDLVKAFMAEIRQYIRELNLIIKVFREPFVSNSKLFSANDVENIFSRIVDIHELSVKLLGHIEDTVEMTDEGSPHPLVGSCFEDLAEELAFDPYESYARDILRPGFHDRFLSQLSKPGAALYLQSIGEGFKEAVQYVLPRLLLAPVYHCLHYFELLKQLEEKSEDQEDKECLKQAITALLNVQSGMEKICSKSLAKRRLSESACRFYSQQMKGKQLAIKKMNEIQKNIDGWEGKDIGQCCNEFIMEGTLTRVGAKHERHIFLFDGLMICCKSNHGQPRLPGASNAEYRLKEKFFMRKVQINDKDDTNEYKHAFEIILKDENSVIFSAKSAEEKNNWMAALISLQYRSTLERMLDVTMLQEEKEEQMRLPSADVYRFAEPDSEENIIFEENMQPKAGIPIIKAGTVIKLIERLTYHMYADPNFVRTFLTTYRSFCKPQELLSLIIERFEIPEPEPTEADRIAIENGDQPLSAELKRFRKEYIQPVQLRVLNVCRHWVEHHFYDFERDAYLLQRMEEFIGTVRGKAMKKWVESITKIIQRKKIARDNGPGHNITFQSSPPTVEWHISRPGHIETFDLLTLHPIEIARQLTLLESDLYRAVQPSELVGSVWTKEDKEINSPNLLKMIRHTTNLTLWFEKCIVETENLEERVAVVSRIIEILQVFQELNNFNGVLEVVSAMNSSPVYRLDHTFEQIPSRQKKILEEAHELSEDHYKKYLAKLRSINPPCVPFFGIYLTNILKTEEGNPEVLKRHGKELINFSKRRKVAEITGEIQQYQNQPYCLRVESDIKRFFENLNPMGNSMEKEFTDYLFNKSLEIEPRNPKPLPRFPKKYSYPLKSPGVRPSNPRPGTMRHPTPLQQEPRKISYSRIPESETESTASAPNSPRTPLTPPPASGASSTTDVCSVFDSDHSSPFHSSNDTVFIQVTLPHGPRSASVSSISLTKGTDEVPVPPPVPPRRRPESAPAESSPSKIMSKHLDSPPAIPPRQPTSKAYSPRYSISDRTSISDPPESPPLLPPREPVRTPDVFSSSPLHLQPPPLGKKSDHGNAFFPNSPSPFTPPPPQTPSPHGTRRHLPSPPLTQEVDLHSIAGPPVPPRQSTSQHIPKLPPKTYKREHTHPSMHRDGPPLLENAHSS
Description: Protein-protein interaction between SOS1 and KRAS^G12c was detected using KRAS G12C/SOS1 binding kit from CISBIO (64KRASG12PEH, CISBIO, FRANCE) according to the manufacturer's assay method. Briefly, the maximum concentration of an inhibitor sample was set to be 3 µM, and the inhibitor sample was diluted 7 times by 1/3, and samples having a total of 8 concentrations were prepared. In HTRF (Homogeneous Time-Resolved Fluorescence) exclusive 96-well low-volume white plate (66PL96005, CISBIO, FRANCE), 2 µL of an inhibitor sample prepared for each concentration, 5 µL of a mixed solution of Tag1 labeled KRAS^G12c protein and GTP diluted with the dilution solution provided by the manufacturer, and 5 µL of Tag2 labeled SOS1 protein were mixed, and added with 8 µL of a diluted solution where anti-Tag1 KRAS^G12C XL665 (HTRF acceptor) labeled antibody and anti-Tag2 SOS1 Terbium cryptate (HTRF donor) labeled antibody were mixed in an equal ratio and cultured at room temperature for 2 h.

[1] = GST-KRAS G12D, HIS-SOS1cat, compound 128 pM to 10 µM, read-out: SOS-catalyzed nucleotide exchange assay
[2] = 8 concentrations from 3 µM, three replicates, read-out: KRAS G12C::SOS1 PPI

| Compound | pIC50 (SOS1; [1]) | pIC50 (KRAS G12C::SOS1; [2]) | pIC50 (SOS1) | pIC50 (KRAS G12C::SOS1) |
| --- | --- | --- | --- | --- |
| C[C@@H](NC(=O)c1ccc(=O)n(-c2cncc(-c3c(Cl)nnn3C)c2)n1)c1cccc(C(F)F)c1F [Example 13, N-{(R)-1-[3-(difluoromethyl)-2-fluorophenyl]ethyl}-1-[5-(4-chloro-1-methyl-1H-1,2,3-triazol-5-yl)-3-pyridyl]-6-oxo-1,6-dihydropyridazine-3-carboxamide] | 6.82 to 7.30 | < 6.82 | – | – |
| C[C@@H](NC(=O)c1ccc(=O)n(-c2cncc(-c3cnnn3C3CN(CCO)C3)c2)n1)c1cccc(C(F)(F)F)c1F [Example 20-1, (R)-N-(1-(2-fluoro-3-(trifluoromethyl)phenyl)ethyl)-1-(5-(1-(1-(2-hydroxyethyl)azetidin-3-yl)-1H-1,2,3-triazol-5-yl)pyridin-3-yl)-6-oxo-1,6-dihydropyridazine-3-carboxamide] | > 7.30 | 6.82 to 7.30 | – | – |
| C[C@@H](NC(=O)c1ccc(=O)n(-c2cncc(-c3cnnn3[C@H]3CC3(F)F)c2)n1)c1cccc(C(F)(F)F)c1F [Example 23, 1-[5-[3-[(1S)-2,2-difluorocyclopropyl]triazol-4-yl]-3-pyridyl]-N-[(1R)-1-[2-fluoro-3-(trifluoromethyl)phenyl]ethyl]-6-oxo-pyridazine-3-carboxamide] | – | – | 6.82 to 7.30 | 6.82 to 7.30 |
| [2H]C([2H])([2H])[C@@H](NC(=O)c1ccc(=O)n(-c2cncc(-c3cnnn3C)c2)n1)c1cccc(C(F)(F)F)c1F [Example 1-35, N-{(R)-1-[2-fluoro-3-(trifluoromethyl)phenyl]-ethyl-(2,2,2-trideuterio)}-1-[5-(1-methyl-1H-1,2,3-triazol-5-yl)-3-pyridyl]-6-oxo-pyridazine-3-carboxamide] | 6.82 to 7.30 | 6.82 to 7.30 | – | – |
| [2H]c1cc(C(=O)N[C@H](C)c2cccc(C(F)(F)CO)c2F)nn(-c2cncc(-c3cnnn3C3CC3)c2)c1=O [Example 1-43] | > 7.30 | > 7.30 | – | – |
| COC(=O)N1CC(n2nncc2-c2cncc(-n3nc(C(=O)N[C@H](C)c4cccc(C(F)(F)F)c4F)ccc3=O)c2)C1 [Example 20-11, methyl (R)-3-(5-(5-(3-((1-(2-fluoro-3-(trifluoromethyl)phenyl)ethyl)carbamoyl)-6-oxopyridazin-1(6H)-yl)pyridin-3-yl)-1H-1,2,3-triazol-1-yl)azetidine-1-carboxylate] | > 7.30 | > 7.30 | – | – |
| C[C@@H](NC(=O)c1ccc(=O)n(-c2cncc(-c3cnnn3C3CC3)c2)n1)c1cc(N)cc(C(F)(F)F)c1 [Example 1-56, 1-[5-(1-cyclopropyl-1H-1,2,3-triazol-5-yl)-3-pyridyl]-6-oxo-N-[(1R)-1-[3-amino-5-(trifluoromethyl)phenyl]ethyl]pyridazine-3-carboxamide] | > 7.30 | > 7.30 | – | – |
| C[C@@H](NC(=O)c1ccc(=O)n(-c2cncc(-c3cnnn3C3CNC3)c2)n1)c1cccc(C(F)(F)CO)c1F [Example 20-2, (R)-1-(5-(1-(azetidin-3-yl)-1H-1,2,3-triazol-5-yl)pyridin-3-yl)-N-(1-(3-(1,1-difluoro-2-hydroxyethyl)-2-fluorophenyl)ethyl)-6-oxo-1,6-dihydropyridazine-3-carboxamide] | > 7.30 | > 7.30 | – | – |
| C[C@@H](NC(=O)c1cc(C#N)c(=O)n(-c2cc(-c3cnnn3C3CC3)cnc2F)n1)c1cccc(C(F)(F)F)c1F [Example 3-4, 5-cyano-N-[(1R)-1-[2-fluoro-3-(trifluoromethyl)phenyl]ethyl]-1-(5-(1-cyclopropyl-1H-1,2,3-triazol-5-yl)-2-fluoropyridin-3-yl)-6-oxo-1,6-dihydropyridazine-3-carboxamide] | 6.82 to 7.30 | 6.82 to 7.30 | – | – |
| C[C@@H](NC(=O)c1ccc(=O)n(-c2cncc(-c3cnnn3C3CN(S(C)(=O)=O)C3)c2)n1)c1cccc(C(F)(F)F)c1F [Example 20-12, (R)-N-(1-(2-fluoro-3-(trifluoromethyl)phenyl)ethyl)-1-(5-(1-(1-(methylsulfonyl)azetidin-3-yl)-1H-1,2,3-triazol-5-yl)pyridin-3-yl)-6-oxo-1,6-dihydropyridazine-3-carboxamide] | > 7.30 | > 7.30 | – | – |
| C[C@@H](NC(=O)c1ccc(=O)n(-c2cnnc(-c3ccnn3C)c2)n1)c1cccc(C(F)(F)F)c1F [Example 1-19, N-[(1R)-1-[2-fluoro-3-(trifluoromethyl)phenyl]ethyl]-1-[6-(2-methylpyrazol-3-yl)pyridazin-4-yl]-6-oxo-pyridazine-3-carboxamide] | < 6.82 | < 6.82 | – | – |
| C[C@@H](NC(=O)c1ccc(=O)n(-c2cncc(-c3cnnn3[C@H]3CCNC3)c2)n1)c1cccc(C(F)(F)F)c1F [Example 20-5, N-[(1R)-1-[2-fluoro-3-(trifluoromethyl)phenyl]ethyl]-6-oxo-1-[5-[3-[(3S)-pyrrolidin-3-yl]triazol-4-yl]-3-pyridyl]pyridazine-3-carboxamide] | – | – | 6.82 to 7.30 | 6.82 to 7.30 |
| [2H]C([2H])([2H])n1nncc1-c1cnc(F)c(-n2nc(C(=O)N[C@H](C)c3cccc(C(F)(F)F)c3F)cc(C#N)c2=O)c1 [Example 3-5, 5-cyano-N-[(1R)-1-(2-fluoro-3-(trifluoromethyl)phenyl)ethyl]-1-[2-fluoro-5-(1-(methyl-trideuterio)-1H-1,2,3-triazol-5-yl)pyridin-3-yl]-6-oxo-1,6-dihydropyridazine-3-carboxamide] | 6.82 to 7.30 | 6.82 to 7.30 | – | – |
| C[C@@H](NC(=O)c1ccc(=O)n(-c2cncc(-c3cnnn3[C@@H]3CC3(F)F)c2)n1)c1cccc(C(F)(F)CO)c1F (single isomer, unassigned) [Example 26] | – | – | > 7.30 | > 7.30 |
